Laboratory results taken from the kinase profiling compilation of Christmann-Franck et al. (2016).

Tests used:
Test in all cases: KINOMEscan competition binding
Settings in all cases: compound 10.0 µM
MAPK8 (human) = MAPK8 (human) (UniProt P45983)
CDK17 (human) = CDK17 (human) (UniProt Q00537)
TLK2 (human) = TLK2 (human) (UniProt Q86UE8)
INSR (human) = INSR (human) (UniProt P06213)
STK11 (human) = STK11 (human) (UniProt Q15831)
[1] = test system: KIT (human), P10721 [V559D]
PAK3 (human) = PAK3 (human) (UniProt O75914)
CDK5 (human) = CDK5 (human) (UniProt Q00535)
DMPK (human) = DMPK (human) (UniProt Q09013)
MAP4K3 (human) = MAP4K3 (human) (UniProt Q8IVH8)
ACVR2A (human) = ACVR2A (human) (UniProt P27037)
ACVR2A (human), sequence (P27037 whole entry, looked up): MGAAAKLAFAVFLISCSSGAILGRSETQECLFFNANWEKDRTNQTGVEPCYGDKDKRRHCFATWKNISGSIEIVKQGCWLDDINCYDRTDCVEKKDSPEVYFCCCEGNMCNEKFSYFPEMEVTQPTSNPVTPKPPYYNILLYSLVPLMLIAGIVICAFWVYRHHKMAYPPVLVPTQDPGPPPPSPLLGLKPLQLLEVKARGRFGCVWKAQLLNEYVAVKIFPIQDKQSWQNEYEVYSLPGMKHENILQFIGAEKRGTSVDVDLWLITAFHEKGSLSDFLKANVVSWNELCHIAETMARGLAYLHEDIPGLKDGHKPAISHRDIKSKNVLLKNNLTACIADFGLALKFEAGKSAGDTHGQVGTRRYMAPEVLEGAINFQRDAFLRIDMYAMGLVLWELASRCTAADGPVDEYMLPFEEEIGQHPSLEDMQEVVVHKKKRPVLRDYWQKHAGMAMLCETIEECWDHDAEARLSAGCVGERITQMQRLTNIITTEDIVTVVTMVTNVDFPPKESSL

PRKAA2 (human) = PRKAA2 (human) (UniProt P54646)
MERTK (human) = MERTK (human) (UniProt Q12866)
CSNK1A1L (human) = CSNK1A1L (human) (UniProt Q8N752)
TGFBR2 (human) = TGFBR2 (human) (UniProt P37173)
NEK9 (human) = NEK9 (human) (UniProt Q8TD19)
CDC42BPA (human) = CDC42BPA (human) (UniProt Q5VT25)
STK17A (human) = STK17A (human) (UniProt Q9UEE5)
STK17A (human), sequence (Q9UEE5 whole entry, looked up): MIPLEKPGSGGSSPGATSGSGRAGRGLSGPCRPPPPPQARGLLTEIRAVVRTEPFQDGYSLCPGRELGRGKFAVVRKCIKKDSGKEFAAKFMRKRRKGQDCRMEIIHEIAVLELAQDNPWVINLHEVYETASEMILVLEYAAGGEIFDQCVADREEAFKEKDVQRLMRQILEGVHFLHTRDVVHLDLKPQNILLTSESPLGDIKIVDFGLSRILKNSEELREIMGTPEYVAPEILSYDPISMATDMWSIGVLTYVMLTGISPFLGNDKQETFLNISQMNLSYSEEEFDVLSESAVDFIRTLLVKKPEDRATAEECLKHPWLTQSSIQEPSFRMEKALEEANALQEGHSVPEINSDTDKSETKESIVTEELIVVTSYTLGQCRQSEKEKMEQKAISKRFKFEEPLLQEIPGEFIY

FGFR1 (human) = FGFR1 (human) (UniProt P11362)
STK4 (human) = STK4 (human) (UniProt Q13043)
PLK1 (human) = PLK1 (human) (UniProt P53350)
CDC42BPG (human) = CDC42BPG (human) (UniProt Q6DT37)
[2] = target: JAK3 JH1 catalytic (human) (UniProt P52333)
MST1R (human) = MST1R (human) (UniProt Q04912)
MST1R (human), sequence (Q04912 whole entry, looked up): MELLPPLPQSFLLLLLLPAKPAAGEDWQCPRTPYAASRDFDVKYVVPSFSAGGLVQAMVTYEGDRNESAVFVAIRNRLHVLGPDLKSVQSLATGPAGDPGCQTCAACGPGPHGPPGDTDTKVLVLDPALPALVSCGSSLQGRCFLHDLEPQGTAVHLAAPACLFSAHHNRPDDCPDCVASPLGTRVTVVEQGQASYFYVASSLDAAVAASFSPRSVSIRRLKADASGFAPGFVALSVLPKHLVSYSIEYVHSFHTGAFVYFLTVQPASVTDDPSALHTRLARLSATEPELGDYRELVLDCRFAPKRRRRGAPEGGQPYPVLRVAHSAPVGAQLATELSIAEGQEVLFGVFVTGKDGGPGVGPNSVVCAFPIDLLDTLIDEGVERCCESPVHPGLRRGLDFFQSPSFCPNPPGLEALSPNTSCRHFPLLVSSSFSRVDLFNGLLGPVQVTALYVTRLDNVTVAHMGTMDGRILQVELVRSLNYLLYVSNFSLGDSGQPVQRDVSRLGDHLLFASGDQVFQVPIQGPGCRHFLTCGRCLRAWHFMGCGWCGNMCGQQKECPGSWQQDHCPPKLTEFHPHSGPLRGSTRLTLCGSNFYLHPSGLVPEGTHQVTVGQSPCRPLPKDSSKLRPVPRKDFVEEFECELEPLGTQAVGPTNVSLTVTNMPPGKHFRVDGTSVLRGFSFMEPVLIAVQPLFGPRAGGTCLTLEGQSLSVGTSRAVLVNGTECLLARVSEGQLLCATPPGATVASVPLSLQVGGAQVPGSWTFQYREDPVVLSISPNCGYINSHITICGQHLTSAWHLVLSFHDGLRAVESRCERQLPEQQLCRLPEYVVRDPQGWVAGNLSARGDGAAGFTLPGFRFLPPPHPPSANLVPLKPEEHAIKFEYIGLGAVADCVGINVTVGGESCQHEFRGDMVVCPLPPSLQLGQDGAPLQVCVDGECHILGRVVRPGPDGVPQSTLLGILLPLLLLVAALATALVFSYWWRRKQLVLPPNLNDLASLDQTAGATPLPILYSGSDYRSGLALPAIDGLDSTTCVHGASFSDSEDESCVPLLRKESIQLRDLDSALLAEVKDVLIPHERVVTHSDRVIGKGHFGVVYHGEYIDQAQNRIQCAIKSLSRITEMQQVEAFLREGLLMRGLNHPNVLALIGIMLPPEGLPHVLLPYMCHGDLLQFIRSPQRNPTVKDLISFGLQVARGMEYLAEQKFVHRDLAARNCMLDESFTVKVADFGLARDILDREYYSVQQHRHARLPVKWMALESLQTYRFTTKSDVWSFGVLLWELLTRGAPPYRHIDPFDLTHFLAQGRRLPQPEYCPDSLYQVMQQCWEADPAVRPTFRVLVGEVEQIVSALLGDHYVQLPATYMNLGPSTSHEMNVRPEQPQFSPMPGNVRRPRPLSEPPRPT

PIK3CD (human) = PIK3CD (human) (UniProt O00329)
PIK3CD (human), sequence (O00329 whole entry, looked up): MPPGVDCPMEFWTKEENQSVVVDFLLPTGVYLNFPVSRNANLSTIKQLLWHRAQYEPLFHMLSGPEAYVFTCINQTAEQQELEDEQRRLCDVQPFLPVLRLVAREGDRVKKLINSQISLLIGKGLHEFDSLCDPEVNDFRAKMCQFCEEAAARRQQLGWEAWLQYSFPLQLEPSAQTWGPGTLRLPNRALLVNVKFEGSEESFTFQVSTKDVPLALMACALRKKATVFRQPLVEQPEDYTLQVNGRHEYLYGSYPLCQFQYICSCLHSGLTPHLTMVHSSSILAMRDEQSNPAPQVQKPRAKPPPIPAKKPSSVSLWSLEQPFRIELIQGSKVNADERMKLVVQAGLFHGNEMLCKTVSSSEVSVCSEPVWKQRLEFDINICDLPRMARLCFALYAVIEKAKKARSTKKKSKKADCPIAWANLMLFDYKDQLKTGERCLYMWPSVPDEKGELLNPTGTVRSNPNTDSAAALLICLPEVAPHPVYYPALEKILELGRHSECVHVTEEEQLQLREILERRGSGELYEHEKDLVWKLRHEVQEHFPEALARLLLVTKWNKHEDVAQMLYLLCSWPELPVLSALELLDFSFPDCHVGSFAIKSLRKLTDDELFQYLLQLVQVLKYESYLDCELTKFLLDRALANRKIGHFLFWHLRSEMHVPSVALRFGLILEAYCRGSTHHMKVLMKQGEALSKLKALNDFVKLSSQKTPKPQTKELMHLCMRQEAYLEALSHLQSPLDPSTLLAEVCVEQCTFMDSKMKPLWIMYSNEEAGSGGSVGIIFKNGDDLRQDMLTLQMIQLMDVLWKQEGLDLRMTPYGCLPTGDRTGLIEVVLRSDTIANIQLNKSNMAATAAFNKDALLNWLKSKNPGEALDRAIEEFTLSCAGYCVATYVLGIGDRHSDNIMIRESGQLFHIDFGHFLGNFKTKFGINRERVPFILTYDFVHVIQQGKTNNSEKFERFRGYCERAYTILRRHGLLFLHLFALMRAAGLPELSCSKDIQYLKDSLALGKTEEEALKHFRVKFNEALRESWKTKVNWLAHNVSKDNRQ

DAPK2 (human) = DAPK2 (human) (UniProt Q9UIK4)
DAPK2 (human), sequence (Q9UIK4 whole entry, looked up): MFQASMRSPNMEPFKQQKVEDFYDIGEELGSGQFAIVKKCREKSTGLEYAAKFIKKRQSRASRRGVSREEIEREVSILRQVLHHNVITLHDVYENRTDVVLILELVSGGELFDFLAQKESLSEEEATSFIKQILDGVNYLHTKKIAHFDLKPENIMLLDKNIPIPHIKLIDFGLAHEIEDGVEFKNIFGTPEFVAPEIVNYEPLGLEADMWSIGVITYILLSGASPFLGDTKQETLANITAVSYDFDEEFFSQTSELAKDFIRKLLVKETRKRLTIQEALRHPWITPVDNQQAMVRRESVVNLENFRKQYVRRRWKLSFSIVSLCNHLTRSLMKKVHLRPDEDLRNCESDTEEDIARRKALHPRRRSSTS

[3] = test system: FLT3 (human), P36888 [N841I]
CAMK2G (human) = CAMK2G (human) (UniProt Q13555)
INSRR (human) = INSRR (human) (UniProt P14616)
MAP3K11 (human) = MAP3K11 (human) (UniProt Q16584)
STK24 (human) = STK24 (human) (UniProt Q9Y6E0)
FRK (human) = FRK (human) (UniProt P42685)
AURKB (human) = AURKB (human) (UniProt Q96GD4)
CHEK1 (human) = CHEK1 (human) (UniProt O14757)
CLK4 (human) = CLK4 (human) (UniProt Q9HAZ1)
[4] = test system: ABL1 (human), P00519 [M351T]
[5] = target: TYK2 JH1 catalytic (human) (UniProt P29597)
BMPR1A (human) = BMPR1A (human) (UniProt P36894)
BMPR1A (human), sequence (P36894 whole entry, looked up): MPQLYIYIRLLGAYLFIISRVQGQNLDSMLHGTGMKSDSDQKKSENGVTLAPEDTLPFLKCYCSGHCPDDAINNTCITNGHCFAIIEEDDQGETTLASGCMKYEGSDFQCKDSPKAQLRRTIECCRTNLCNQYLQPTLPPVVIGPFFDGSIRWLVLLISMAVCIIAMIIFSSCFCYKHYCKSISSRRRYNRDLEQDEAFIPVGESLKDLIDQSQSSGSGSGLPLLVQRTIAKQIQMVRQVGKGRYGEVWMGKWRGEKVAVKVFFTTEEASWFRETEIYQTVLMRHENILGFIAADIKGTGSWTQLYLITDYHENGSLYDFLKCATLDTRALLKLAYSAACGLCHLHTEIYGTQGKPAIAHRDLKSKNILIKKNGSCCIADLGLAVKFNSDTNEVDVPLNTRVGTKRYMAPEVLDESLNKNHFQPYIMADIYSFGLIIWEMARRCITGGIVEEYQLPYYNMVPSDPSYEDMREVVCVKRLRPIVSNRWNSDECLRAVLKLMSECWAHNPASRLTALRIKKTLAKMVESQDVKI

PIK3C2B (human) = PIK3C2B (human) (UniProt O00750)
MARK3 (human) = MARK3 (human) (UniProt P27448)
MARK3 (human), sequence (P27448 whole entry, looked up): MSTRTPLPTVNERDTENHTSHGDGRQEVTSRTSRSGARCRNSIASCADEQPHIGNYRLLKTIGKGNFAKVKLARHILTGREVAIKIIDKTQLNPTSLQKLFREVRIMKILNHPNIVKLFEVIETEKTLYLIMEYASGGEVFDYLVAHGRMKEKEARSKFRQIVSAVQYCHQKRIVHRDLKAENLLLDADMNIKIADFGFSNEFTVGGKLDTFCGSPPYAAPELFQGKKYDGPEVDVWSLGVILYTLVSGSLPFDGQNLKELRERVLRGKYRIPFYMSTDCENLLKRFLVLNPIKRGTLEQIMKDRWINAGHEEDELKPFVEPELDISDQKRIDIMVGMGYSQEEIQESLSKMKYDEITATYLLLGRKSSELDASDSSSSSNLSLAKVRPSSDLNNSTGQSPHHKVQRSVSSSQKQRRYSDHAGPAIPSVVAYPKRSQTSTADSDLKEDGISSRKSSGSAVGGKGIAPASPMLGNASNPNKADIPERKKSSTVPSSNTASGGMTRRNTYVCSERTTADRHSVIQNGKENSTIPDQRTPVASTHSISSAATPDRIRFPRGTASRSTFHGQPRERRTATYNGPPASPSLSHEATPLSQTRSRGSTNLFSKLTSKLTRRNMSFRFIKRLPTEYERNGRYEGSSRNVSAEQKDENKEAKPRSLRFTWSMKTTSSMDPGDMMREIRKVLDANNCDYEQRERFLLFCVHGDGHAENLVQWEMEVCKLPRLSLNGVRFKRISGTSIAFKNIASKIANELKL

Structure (SMILES) | kinase still bound, per cent of control (MAPK8 (human)) [%] | kinase still bound, per cent of control (CDK17 (human)) [%] | kinase still bound, per cent of control (TLK2 (human)) [%] | kinase still bound, per cent of control (INSR (human)) [%] | kinase still bound, per cent of control (STK11 (human)) [%] | kinase still bound, per cent of control [1] [%] | kinase still bound, per cent of control (PAK3 (human)) [%] | kinase still bound, per cent of control (CDK5 (human)) [%] | kinase still bound, per cent of control (DMPK (human)) [%] | kinase still bound, per cent of control (MAP4K3 (human)) [%] | kinase still bound, per cent of control (ACVR2A (human)) [%] | kinase still bound, per cent of control (PRKAA2 (human)) [%] | kinase still bound, per cent of control (MERTK (human)) [%] | kinase still bound, per cent of control (CSNK1A1L (human)) [%] | kinase still bound, per cent of control (TGFBR2 (human)) [%] | kinase still bound, per cent of control (NEK9 (human)) [%] | kinase still bound, per cent of control (CDC42BPA (human)) [%] | kinase still bound, per cent of control (STK17A (human)) [%] | kinase still bound, per cent of control (FGFR1 (human)) [%] | kinase still bound, per cent of control (STK4 (human)) [%] | also measured
C=CC(=O)Nc1cccc(Nc2nc(N[C@H]3CC[C@H](N(C)C)CC3)nc3c2ncn3C(C)C)c1 | 100 | 100 | 100 | 69 | 66 | 42 | 100 | 80 | 8.8 | 25 | 97 | 100 | 16 | 1.5 | 100 | 100 | 82 | 100 | 76 | 78 | kinase still bound, per cent of control (PLK1 (human)): 21%; kinase still bound, per cent of control (CDC42BPG (human)): 84%; kinase still bound, per cent of control [2]: 89%; kinase still bound, per cent of control (MST1R (human)): 100%; kinase still bound, per cent of control (PIK3CD (human)): 92%; kinase still bound, per cent of control (DAPK2 (human)): 37%; kinase still bound, per cent of control [3]: 0%; kinase still bound, per cent of control (CAMK2G (human)): 76%; kinase still bound, per cent of control (INSRR (human)): 64%; kinase still bound, per cent of control (MAP3K11 (human)): 24%; kinase still bound, per cent of control (STK24 (human)): 43%; kinase still bound, per cent of control (FRK (human)): 53%; kinase still bound, per cent of control (AURKB (human)): 73%; kinase still bound, per cent of control (CHEK1 (human)): 87%; kinase still bound, per cent of control (CLK4 (human)): 5.1%; kinase still bound, per cent of control [4]: 71%; kinase still bound, per cent of control [5]: 34%; kinase still bound, per cent of control (BMPR1A (human)): 100%; kinase still bound, per cent of control (PIK3C2B (human)): 100%; kinase still bound, per cent of control (MARK3 (human)): 81%
Cn1c(=O)n(-c2ccc(C(C)(C)C#N)cc2)c2c3cc(-c4cnc5ccccc5c4)ccc3ncc21 | 100 | 100 | 100 | 100 | 100 | 100 | 100 | 100 | 100 | 100 | 100 | 100 | 100 | 100 | 100 | 100 | 100 | 100 | 100 | 100 | kinase still bound, per cent of control (PLK1 (human)): 100%; kinase still bound, per cent of control (CDC42BPG (human)): 100%; kinase still bound, per cent of control [2]: 100%; kinase still bound, per cent of control (MST1R (human)): 100%; kinase still bound, per cent of control (PIK3CD (human)): 7.2%; kinase still bound, per cent of control (DAPK2 (human)): 100%; kinase still bound, per cent of control [3]: 100%; kinase still bound, per cent of control (CAMK2G (human)): 100%; kinase still bound, per cent of control (INSRR (human)): 100%; kinase still bound, per cent of control (MAP3K11 (human)): 100%; kinase still bound, per cent of control (STK24 (human)): 100%; kinase still bound, per cent of control (FRK (human)): 100%; kinase still bound, per cent of control (AURKB (human)): 100%; kinase still bound, per cent of control (CHEK1 (human)): 100%; kinase still bound, per cent of control (CLK4 (human)): 22%; kinase still bound, per cent of control [4]: 100%; kinase still bound, per cent of control [5]: 100%; kinase still bound, per cent of control (BMPR1A (human)): 100%; kinase still bound, per cent of control (PIK3C2B (human)): 2.8%; kinase still bound, per cent of control (MARK3 (human)): 100%
